Assay results as given in US20230077362A1 (CORTEVA AGRISCIENCE LLC, priority 2019, published 2023).

Assays:
Assay type in all cases: in vivo
[1] = system: Beet Armyworm (Spodoptera exigua) ("BAW"), second instar larvae; assay: Bioassay on beet armyworm (BAW), 128-well diet tray assay; conditions: Spodoptera exigua, read-out: BAW (Biological Results, rating)
Outline: (§1)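 Each value represents average percent mortality from eight wells. Larvae were kept in clear-covered trays at 25° C. for five to seven days on a 14-hour light, 10-hour dark schedule before scoring.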

[2] = system: Green Peach Aphid ("GPA") (Myzus persicae), wingless adult and nymph stages; assay: Bioassay on green peach aphid (GPA), foliar spray on infested cabbage seedlings; conditions: Myzus persicae, foliar, 72 h, read-out: GPA (Biological Results, rating)
Outline: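 Cabbage seedlings with 2-3 true leaves, infested one day earlier with 20-50 wingless adult and nymph GPA, sprayed to runoff on both leaf sides; solvent check held 20% acetone/methanol (1:1). Live aphids counted after three days at about 25° C; corrected % control = 100*(X−Y)/X versus solvent check.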

[3] = system: Cabbage Looper (Trichoplusia ni) ("CL"), second instar larvae; assay: Bioassay on cabbage looper (CL), 128-well diet tray assay; conditions: Trichoplusia ni, read-out: CL (Biological Results, rating)
Outline: as §1

With `CC(C)c1cc(F)c(N(C)C)cc1N1C(=O)CS/C1=N\C(=O)Nc1ccc(-c2ncn(-c3ccc(C(F)(F)F)cc3)n2)cc1F` [Compound J183, (Z)-1-(3-(5-(Dimethylamino)-4-fluoro-2-isopropylphenyl)-4-oxothiazolidin-2-ylidene)-3-(2-fluoro-4-(1-(4-(trifluoromethyl)phenyl)-1H-1,2,4-triazol-3-yl)phenyl)urea] the pest or weed control at 50 µg/cm2 [1] was 50 to 100%, the pest or weed control at 200 µg/mL [2] was 0 to 80% and the pest or weed control at 50 µg/cm2 [3] was 50 to 100%.
`CCN(C(C)=O)c1ccc(C(C)C)c(N2C(=O)CS/C2=N\C(=O)Nc2ccc(-c3ncn(-c4ccc(OC(F)(F)F)cc4)n3)cc2F)c1` [Compound J189, (Z)-N-Ethyl-N-(3-(2-(((2-fluoro-4-(1-(4-(trifluoromethoxy)phenyl)-1H-1,2,4-triazol-3-yl)phenyl)carbamoyl)imino)-4-oxothiazolidin-3-yl)-4-isopropylphenyl)acetamide] was tested, and the pest or weed control at 50 µg/cm2 [1] was 50 to 100%, the pest or weed control at 200 µg/mL [2] was 0 to 80% and the pest or weed control at 50 µg/cm2 [3] was 50 to 100%.
`CCOc1ccc(N(C)C)cc1N1C(=O)CS/C1=N\C(=O)Nc1ccc(-c2ncn(-c3ccc(OC(F)(F)F)cc3)n2)cc1F` [Compound J192, (Z)-1-(3-(5-(Dimethylamino)-2-ethoxyphenyl)-4-oxothiazolidin-2-ylidene)-3-(2-fluoro-4-(1-(4-(trifluoromethoxy)phenyl)-1H-1,2,4-triazol-3-yl)phenyl)urea] gave a pest or weed control at 50 µg/cm2 [1] of 50 to 100%, a pest or weed control at 200 µg/mL [2] of 0 to 80% and a pest or weed control at 50 µg/cm2 [3] of 50 to 100%.
For `CN(C)c1ccc(OCC(F)(F)F)c(N2C(=O)CS/C2=N\C(=O)Nc2ccc(-c3ncn(-c4ccc(OC(F)(F)F)cc4)n3)cc2F)c1` [Compound J193, (Z)-1-(3-(5-(Dimethylamino)-2-(2,2,2-trifluoroethoxy)phenyl)-4-oxothiazolidin-2-ylidene)-3-(2-fluoro-4-(1-(4-(trifluoromethoxy)phenyl)-1H-1,2,4-triazol-3-yl)phenyl)urea], the pest or weed control at 50 µg/cm2 [1] was 50 to 100%, the pest or weed control at 200 µg/mL [2] was 0 to 80% and the pest or weed control at 50 µg/cm2 [3] was 50 to 100%.
`Cc1ccc(COCC(F)(F)F)c(N2C(=O)CS/C2=N\C(=O)Nc2ccc(-c3ncn(-c4ccc(OC(F)(F)F)cc4)n3)cc2Cl)c1` [Compound J194, (Z)-1-(2-Chloro-4-(1-(4-(trifluoromethoxy)phenyl)-1H-1,2,4-triazol-3-yl)phenyl)-3-(3-(5-methyl-2-((2,2,2-trifluoroethoxy)methyl)phenyl)-4-oxothiazolidin-2-ylidene)urea] showed a pest or weed control at 50 µg/cm2 [1] of 50 to 100%, a pest or weed control at 200 µg/mL [2] of 0 to 80% and a pest or weed control at 50 µg/cm2 [3] of 50 to 100%.
For `CCCc1ccc(N(C)C)cc1N1C(=O)CS/C1=N\C(=O)Nc1ccc(-c2ncn(-c3ccc(OC(F)(F)F)cc3)n2)cc1F` [Compound J196, (Z)-1-(3-(5-(Dimethylamino)-2-propylphenyl)-4-oxothiazolidin-2-ylidene)-3-(2-fluoro-4-(1-(4-(trifluoromethoxy)phenyl)-1H-1,2,4-triazol-3-yl)phenyl)urea], the pest or weed control at 50 µg/cm2 [1] was 50 to 100%, the pest or weed control at 200 µg/mL [2] was 0 to 80% and the pest or weed control at 50 µg/cm2 [3] was 50 to 100%.
`Cc1ccc(OCC(F)(F)F)c(N2C(=O)CS/C2=N\C(=O)Nc2ccc(-c3ncn(-c4ccc(SC(F)(F)F)cc4)n3)cc2F)c1` [Compound J223, (Z)-1-(2-Fluoro-4-(1-(4-((trifluoromethyl)thio)phenyl)-1H-1,2,4-triazol-3-yl)phenyl)-3-(3-(5-methyl-2-(2,2,2-trifluoroethoxy)phenyl)-4-oxothiazolidin-2-ylidene)urea] showed a pest or weed control at 50 µg/cm2 [1] of 50 to 100%, a pest or weed control at 200 µg/mL [2] of 0 to 80% and a pest or weed control at 50 µg/cm2 [3] of 50 to 100%.
For `CCOc1ccc(C)cc1N1C(=O)CS/C1=N\C(=O)Nc1ccc(-c2ncn(-c3ccc(SC(F)(F)F)cc3)n2)cc1F` [Compound J224, (Z)-1-(3-(2-Ethoxy-5-methylphenyl)-4-oxothiazolidin-2-ylidene)-3-(2-fluoro-4-(1-(4-((trifluoromethyl)thio)phenyl)-1H-1,2,4-triazol-3-yl)phenyl)urea], the pest or weed control at 50 µg/cm2 [1] was 50 to 100%, the pest or weed control at 200 µg/mL [2] was 0 to 80% and the pest or weed control at 50 µg/cm2 [3] was 50 to 100%.
Work on `Cc1ccc(OCCCC(F)(F)F)c(N2C(=O)CS/C2=N\C(=O)Nc2ccc(-c3ncn(-c4ccc(SC(F)(F)F)cc4)n3)cc2F)c1` [Compound J225, (Z)-1-(2-Fluoro-4-(1-(4-((trifluoromethyl)thio)phenyl)-1H-1,2,4-triazol-3-yl)phenyl)-3-(3-(5-methyl-2-(4,4,4-trifluorobutoxy)phenyl)-4-oxothiazolidin-2-ylidene)urea] yielded a pest or weed control at 50 µg/cm2 [1] of 50 to 100%, a pest or weed control at 200 µg/mL [2] of 0 to 80% and a pest or weed control at 50 µg/cm2 [3] of 50 to 100%.
In the case of `COC(c1ccc(C)cc1N1C(=O)CS/C1=N\C(=O)Nc1ccc(-c2ncn(-c3ccc(SC(F)(F)F)cc3)n2)cc1F)C(F)(F)F` (stereo not drawn) [Compound J229, (Z)-1-(2-Fluoro-4-(1-(4-((trifluoromethyl)thio)phenyl)-1H-1,2,4-triazol-3-yl)phenyl)-3-(3-(5-methyl-2-(2,2,2-trifluoro-1-methoxyethyl)phenyl)-4-oxothiazolidin-2-ylidene)urea], the pest or weed control at 50 µg/cm2 [1] is reported as 50 to 100%, the pest or weed control at 200 µg/mL [2] is reported as 0 to 80% and the pest or weed control at 50 µg/cm2 [3] is reported as 50 to 100%.
Work on `CCOC(C)c1ccc(C)cc1N1C(=O)CS/C1=N\C(=O)Nc1ccc(-c2ncn(-c3ccc(SC(F)(F)F)cc3)n2)cc1F` (stereo not drawn) [Compound J230, (Z)-1-(3-(2-(1-Ethoxyethyl)-5-methylphenyl)-4-oxothiazolidin-2-ylidene)-3-(2-fluoro-4-(1-(4-((trifluoromethyl)thio)phenyl)-1H-1,2,4-triazol-3-yl)phenyl)urea] yielded a pest or weed control at 50 µg/cm2 [1] of 50 to 100%, a pest or weed control at 200 µg/mL [2] of 0 to 80% and a pest or weed control at 50 µg/cm2 [3] of 50 to 100%.
`Cc1ccc(C(C)C)c(N2C(=O)CS/C2=N\C(=O)Nc2ccc(-c3ncn(-c4ccc(SC(F)(F)F)cc4)n3)cc2Cl)c1` [Compound J231, (Z)-1-(2-Chloro-4-(1-(4-((trifluoromethyl)thio)phenyl)-1H-1,2,4-triazol-3-yl)phenyl)-3-(3-(2-isopropyl-5-methylphenyl)-4-oxothiazolidin-2-ylidene)urea] gave a pest or weed control at 50 µg/cm2 [1] of 50 to 100%, a pest or weed control at 200 µg/mL [2] of 0 to 80% and a pest or weed control at 50 µg/cm2 [3] of 50 to 100%.
For `COC(C)c1ccc(C)cc1N1C(=O)CS/C1=N\C(=O)Nc1ccc(-c2ncn(-c3ccc(SC(F)(F)F)cc3)n2)cc1Cl` (stereo not drawn) [Compound J232, (Z)-1-(2-Chloro-4-(1-(4-((trifluoromethyl)thio)phenyl)-1H-1,2,4-triazol-3-yl)phenyl)-3-(3-(2-(1-methoxyethyl)-5-methylphenyl)-4-oxothiazolidin-2-ylidene)urea], the pest or weed control at 50 µg/cm2 [1] was 50 to 100%, the pest or weed control at 200 µg/mL [2] was 0 to 80% and the pest or weed control at 50 µg/cm2 [3] was 50 to 100%.
Compound `Cc1ccc(C(C)C)c(N2C(=O)CS/C2=N\C(=O)Nc2ccc(-c3ncn(-c4ccc(C#N)cc4)n3)cc2F)c1` [Compound J287, (Z)-1-(4-(1-(4-Cyanophenyl)-1H-1,2,4-triazol-3-yl)-2-fluorophenyl)-3-(3-(2-isopropyl-5-methylphenyl)-4-oxothiazolidin-2-ylidene)urea] has a pest or weed control at 50 µg/cm2 [1] of 50 to 100%, a pest or weed control at 200 µg/mL [2] of 0 to 80% and a pest or weed control at 50 µg/cm2 [3] of 50 to 100%.
In the case of `Cc1ccc(OCCC(F)(F)F)c(N2C(=O)CS/C2=N\C(=O)Nc2ccc(-c3ncn(-c4ccc(C#N)cc4)n3)cc2F)c1` [Compound J288, (Z)-1-(4-(1-(4-Cyanophenyl)-1H-1,2,4-triazol-3-yl)-2-fluorophenyl)-3-(3-(5-methyl-2-(3,3,3-trifluoropropoxy)phenyl)-4-oxothiazolidin-2-ylidene)urea], the pest or weed control at 50 µg/cm2 [1] is reported as 50 to 100%, the pest or weed control at 200 µg/mL [2] is reported as 0 to 80% and the pest or weed control at 50 µg/cm2 [3] is reported as 50 to 100%.
For `Cc1ccc(COCC(F)(F)F)c(N2C(=O)CS/C2=N\C(=O)Nc2ccc(-c3ncn(-c4ccc(C#N)cc4)n3)cc2F)c1` [Compound J289, (Z)-1-(4-(1-(4-Cyanophenyl)-1H-1,2,4-triazol-3-yl)-2-fluorophenyl)-3-(3-(5-methyl-2-((2,2,2-trifluoroethoxy)methyl)phenyl)-4-oxothiazolidin-2-ylidene)urea], the pest or weed control at 50 µg/cm2 [1] was 50 to 100%, the pest or weed control at 200 µg/mL [2] was 0 to 80% and the pest or weed control at 50 µg/cm2 [3] was 50 to 100%.
`COC(C)c1ccc(C)cc1N1C(=O)CS/C1=N\C(=O)Nc1ccc(-c2ncn(-c3ccc(C#N)cc3)n2)cc1F` (stereo not drawn) [Compound J291, (Z)-1-(4-(1-(4-Cyanophenyl)-1H-1,2,4-triazol-3-yl)-2-fluorophenyl)-3-(3-(2-(1-methoxyethyl)-5-methylphenyl)-4-oxothiazolidin-2-ylidene)urea] showed a pest or weed control at 50 µg/cm2 [1] of 50 to 100%, a pest or weed control at 200 µg/mL [2] of 0 to 80% and a pest or weed control at 50 µg/cm2 [3] of 50 to 100%.
For `COc1ccc(C(C)C)c(N2C(=O)CS/C2=N\C(=O)Nc2ccc(-c3ncn(-c4ccc(OC(F)(F)F)cc4)n3)cc2F)c1` [Compound J312], the pest or weed control at 50 µg/cm2 [1] was 50 to 100%, the pest or weed control at 200 µg/mL [2] was 0 to 80% and the pest or weed control at 50 µg/cm2 [3] was 50 to 100%.
For `Cc1ccc(C(C)C)c(N2C(=O)C(Cl)S/C2=N\C(=O)Nc2ccc(-c3ncn(-c4ccc(OC(F)(F)F)cc4)n3)cc2)c1` (stereo not drawn) [Compound J314, (Z)-1-(5-Chloro-3-(2-isopropyl-5-methylphenyl)-4-oxothiazolidin-2-ylidene)-3-(4-(1-(4-(trifluoromethoxy)phenyl)-1H-1,2,4-triazol-3-yl)phenyl)urea], the pest or weed control at 50 µg/cm2 [1] was 50 to 100%, the pest or weed control at 200 µg/mL [2] was 0 to 80% and the pest or weed control at 50 µg/cm2 [3] was 50 to 100%.
In the case of `Cc1ccc(OCCC(F)(F)F)c(N2C(=O)CS/C2=N\C(=O)Nc2ccc(-c3ncn(-c4ccc(C(F)(F)F)cc4)n3)cc2)c1` [Compound J315, (Z)-1-(3-(5-Methyl-2-(3,3,3-trifluoropropoxy)phenyl)-4-oxothiazolidin-2-ylidene)-3-(4-(1-(4-(trifluoromethyl)phenyl)-1H-1,2,4-triazol-3-yl)phenyl)urea], the pest or weed control at 50 µg/cm2 [1] is reported as 50 to 100%, the pest or weed control at 200 µg/mL [2] is reported as 0 to 80% and the pest or weed control at 50 µg/cm2 [3] is reported as 50 to 100%.
